The values that follow come from ChEMBL document CHEMBL5032490, “Neuroactive Type-A γ-Aminobutyric Acid Receptor Allosteric Modulator Steroids from the Hypobranchial Gland of Marine Mollusk, Conus geographus” (J Med Chem, 2021).

Activity calls are given as the source filed them. The calls are words filed in the database; no cut-off is given here.

The test system of assay [1] is Neuron. The assay is described as follows: Negative allosteric modulation of human GABA receptor expressed in mouse DRG neurons assessed as inhibition of 340 nM GABA-induced responses at 0.5 uM using c-LTMRS. The following applies: filed as negative allosteric modulator. The assay is classed as tissue-based.
Assay [2] concerns Neuron. The assay is described as follows: Negative allosteric modulation of mouse GABA receptor in mouse non-peptidergic nociceptive DRG neurons assessed as inhibition of KCl-induced response at 10 uM. It counts as tissue-based. The note with it: filed as negative allosteric modulator.
Assay [3] is described as follows: Induction of ATP and Kcl-induced increase in cytosolic Ca2+ ion concentration mouse DRG other neuron subtype assessed as neuron population at 10 uM measured after 1 hr by Fura2AM dye based fluorescence microscopic analysis. It counts as functional.
Assay [4] concerns Neuron. The assay can be described thus: Negative allosteric modulation of human GABA receptor expressed in mouse DRG neurons assessed as inhibition of 340 nM GABA-induced responses at 0.5 uM using cold thermo-sensors. The following applies: filed as negative allosteric modulator. It counts as tissue-based.
The test system of assay [5] is Neuron. The assay can be described thus: Negative allosteric modulation of mouse GABA receptor in mouse peptidergic nociceptive DRG neurons assessed as inhibition of KCl-induced response at 10 uM. The assay is classed as tissue-based. The note with it: filed as negative allosteric modulator.
In assay [6] the target is T1, GABA-A receptor; alpha-2/beta-3/gamma-2 (Homo sapiens, UniProt P18507+P28472+P47869).
T1 sequence (P18507 whole entry): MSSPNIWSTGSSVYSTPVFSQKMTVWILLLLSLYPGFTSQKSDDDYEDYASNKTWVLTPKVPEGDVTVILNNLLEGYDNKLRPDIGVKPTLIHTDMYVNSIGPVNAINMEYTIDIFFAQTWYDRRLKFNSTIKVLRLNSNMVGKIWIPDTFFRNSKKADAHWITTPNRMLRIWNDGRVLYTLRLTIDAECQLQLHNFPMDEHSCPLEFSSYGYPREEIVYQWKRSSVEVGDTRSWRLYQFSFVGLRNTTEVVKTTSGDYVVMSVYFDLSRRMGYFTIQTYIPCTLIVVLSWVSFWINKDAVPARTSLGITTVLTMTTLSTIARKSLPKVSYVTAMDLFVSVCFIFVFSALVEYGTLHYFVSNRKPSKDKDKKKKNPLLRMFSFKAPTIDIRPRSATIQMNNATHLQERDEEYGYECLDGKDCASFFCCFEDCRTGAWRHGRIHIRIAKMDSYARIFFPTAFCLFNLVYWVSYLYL
T1 sequence (P28472 whole entry): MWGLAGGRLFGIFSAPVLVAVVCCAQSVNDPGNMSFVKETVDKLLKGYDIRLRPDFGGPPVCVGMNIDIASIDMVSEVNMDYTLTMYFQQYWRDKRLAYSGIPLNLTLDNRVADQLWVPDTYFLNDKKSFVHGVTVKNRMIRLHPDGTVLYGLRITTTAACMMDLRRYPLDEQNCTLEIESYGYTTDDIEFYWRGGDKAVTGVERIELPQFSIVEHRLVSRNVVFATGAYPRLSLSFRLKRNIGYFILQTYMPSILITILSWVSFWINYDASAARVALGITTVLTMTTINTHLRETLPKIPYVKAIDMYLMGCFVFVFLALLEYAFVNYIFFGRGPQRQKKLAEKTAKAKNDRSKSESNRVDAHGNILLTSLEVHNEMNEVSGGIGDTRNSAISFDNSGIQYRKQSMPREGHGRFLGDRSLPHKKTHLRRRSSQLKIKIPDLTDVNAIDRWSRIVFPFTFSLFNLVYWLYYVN
T1 sequence (P47869 whole entry): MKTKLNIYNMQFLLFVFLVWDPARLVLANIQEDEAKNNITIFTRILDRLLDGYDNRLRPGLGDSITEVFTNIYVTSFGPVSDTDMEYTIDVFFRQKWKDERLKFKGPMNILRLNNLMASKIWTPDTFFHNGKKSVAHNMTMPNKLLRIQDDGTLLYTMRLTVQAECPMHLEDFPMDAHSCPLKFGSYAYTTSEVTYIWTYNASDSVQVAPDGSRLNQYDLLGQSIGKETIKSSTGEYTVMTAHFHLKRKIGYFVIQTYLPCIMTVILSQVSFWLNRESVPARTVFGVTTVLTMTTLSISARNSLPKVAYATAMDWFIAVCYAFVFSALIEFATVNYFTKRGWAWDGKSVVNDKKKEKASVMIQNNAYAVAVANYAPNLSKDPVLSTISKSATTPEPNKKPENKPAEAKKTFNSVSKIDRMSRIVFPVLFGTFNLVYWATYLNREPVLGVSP
The assay is described as follows: Negative allosteric modulation activity at human GABAA alpha2beta3gamma2 stably expressed in HEK cells by whole cell patch clamp method. The assay is classed as cell-based.

A short description of assay [7]: Induction of cytosolic calcium ion concentration in mouse microglia cells at 10 uM measured after 1 hr by Fura2AM dye based fluorescence microscopic analysis. The assay is classed as functional.
Assay [8] relates to Mus musculus. The assay can be described thus: Anxiolytic activity in restraint stress induced anxiety mouse model assessed as total number of responses at 2 to 50 mg/kg, ip administered measured after 5 mins by plus maze test. The following applies: dose 2-50 mg/kg. The assay is classed as functional, organism-based.
The test system of assay [9] is Neuron. The assay is described as follows: Negative allosteric modulation of mouse GABA receptor in mouse DRG neurons assessed as inhibition of KCl-induced response at 10 uM using cold thermosensors. The following applies: filed as negative allosteric modulator. It counts as tissue-based.
The nature of assay [10]: Induction of cytosolic calcium ion concentration in mouse non-peptidergic nociceptive DRG neuron at 10 uM measured after 1 hr by Fura2AM dye based fluorescence microscopic analysis. It counts as functional.
The subject of assay [11] is HEK. The assay is described as follows: Negative allosteric modulation of human GABA receptor expressed in HEK cells assessed as inhibition of GABA-induced current in presence of EC20 concentration of GABA by patch clamp method. The following applies: filed as negative allosteric modulator. The assay is classed as cell-based.
Assay [12] concerns Mus musculus. The assay can be described thus: Anxiolytic activity in restraint stress induced anxiety mouse model assessed as total number of responses at 2 to 50 mg/kg, ip administered measured after 5 mins by open field test. The following applies: dose 2-50 mg/kg. It counts as functional, organism-based.
The test system of assay [13] is Neuron. The assay is described as follows: Negative allosteric modulation of human GABA receptor expressed in mouse DRG neurons assessed as inhibition of 340 nM GABA-induced responses at 0.5 uM using nociceptor. The following applies: filed as negative allosteric modulator. It counts as tissue-based.
In assay [14] the target is GABA A receptor alpha-4/beta-3/gamma-2 (Homo sapiens, UniProt P18507+P28472+P48169). The assay is described as follows: Negative allosteric modulation activity at human GABAA alpha4beta3gamma2 stably expressed in HEK cells by patch clamp method. It counts as cell-based. For orientation: In patch-clamp work, channel activity is measured electrically.
Chain of GABA A receptor alpha-4/beta-3/gamma-2 (P48169 whole entry, one chain of several): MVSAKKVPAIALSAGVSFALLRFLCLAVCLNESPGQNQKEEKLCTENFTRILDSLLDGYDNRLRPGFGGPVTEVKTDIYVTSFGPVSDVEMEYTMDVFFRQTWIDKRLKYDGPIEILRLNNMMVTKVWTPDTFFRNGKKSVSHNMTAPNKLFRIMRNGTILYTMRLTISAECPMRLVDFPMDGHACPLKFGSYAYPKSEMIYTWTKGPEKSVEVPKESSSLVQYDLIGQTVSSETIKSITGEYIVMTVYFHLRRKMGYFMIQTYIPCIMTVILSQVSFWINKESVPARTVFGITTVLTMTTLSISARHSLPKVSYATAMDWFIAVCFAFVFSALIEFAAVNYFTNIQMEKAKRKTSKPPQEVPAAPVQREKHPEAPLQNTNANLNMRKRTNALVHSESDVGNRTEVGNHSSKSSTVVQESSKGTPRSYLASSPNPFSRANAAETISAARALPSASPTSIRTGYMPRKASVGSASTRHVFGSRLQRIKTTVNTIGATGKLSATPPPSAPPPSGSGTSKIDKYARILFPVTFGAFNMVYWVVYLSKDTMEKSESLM
A short description of assay [15]: Induction of cytosolic calcium ion concentration in mouse DRG other neuron subtype at 10 uM measured after 1 hr by Fura2AM dye based fluorescence microscopic analysis. The assay is classed as functional.

For orientation: IC50 means the concentration at which inhibition is half-maximal. Read a high IC50 as lower potency. Regarding `CC(C)CCC[C@@H](C)[C@H]1CC[C@H]2[C@@H]3C(=O)C=C4C=CCC[C@]4(C)[C@H]3CC[C@]12C`, the outcome in assay [1], in assay [2], in assay [4], in assay [5], in [9] and in assay [11] was Active. In [13], the outcome was Active. Moreover, the Activity came out at 7% in assay [3], 7% in [7], 27% in assay [10] and 3% in [15]. In addition, the IC50 in assay [6] turned out to be 15.7 µM; in assay [14], 1 µM. For the same compound, the outcome in assay [8] and in assay [12] was inactive.
